Data taken from ChEMBL document CHEMBL5604062, “ASAP - ZIKV NS2B-NS3 protease fluorescence dose response” (2024).
pIC50: −log10 of the molar value. “And” between values parts separate entries of the source, which are not always exact repeats. Equal values may be shown once.

Target: Nonstructural protein 3 (Zika virus, UniProt A0A024AXB9)
Experiment: Functional biochemical assay to identify treatments for viral infectious disease that targets Zika NS2B-NS3 protease. Utilizing a direct enzyme activity measurement method, reading the fluorescence intensity is used to characterize the relative potency of inhibitors as IC50.
Design: species or system PRVABC59

Sequence of Nonstructural protein 3 (A0A024AXB9 whole entry): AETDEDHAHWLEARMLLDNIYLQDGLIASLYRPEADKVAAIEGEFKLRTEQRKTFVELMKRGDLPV

Structure (SMILES) | pIC50 | IC50
CN(c1ccc2c(c1)CNC2)[C@H](C(=O)NCC(F)F)c1cc(Cl)cc(C2CC2)c1 | 7.49 and 7.77 | 
COCc1cc(Cl)cc([C@H](Nc2ccc3c(c2)CNC3)C(=O)NCC(F)F)c1 | 7.57 and 7.85 | 
N#Cc1ccc(-c2nc3c(C(=O)Nc4ccc5c(c4)CNC5)cc(F)cc3[nH]2)cc1 | 7.85 and 7.89 and 8.00 | 
COc1cccc(-c2nc3c(C(=O)Nc4ccc5c(c4)CNC5)cc(F)cc3[nH]2)c1 | 7.34 and 7.38 and 7.60 | 
O=C(NCC(F)F)[C@H](Nc1ccc2c(c1)CNC2)c1cccc(Cl)c1 | 7.09 and 7.18 | 
NCc1cccc(-c2csc3cc(C(=O)Nc4ccc5c(c4)CNC5)ccc23)c1 | 5.77 and 5.85 | 
O=C(Nc1ccc2c(c1)CNC2)c1cc(F)cc2[nH]c(-c3cccc(F)c3)nc12 |  | 36 nM (2×) and 22 nM
Cc1cccc(-c2nc3c(C(=O)Nc4ccc5c(c4)CNC5)cc(F)cc3[nH]2)c1 | 6.95 and 6.80 | 
O=C(NCC(F)F)[C@H](Nc1ccc2c(c1)CNC2)c1cc(Cl)cc(Cl)c1Cl | 7.16 and 7.19 | 
O=C(Nc1ccc2c(c1)CNC2)c1ccc2c(C3=CCNCC3)csc2c1 | 6.30 and 6.27 | 
COc1ccc(Cl)cc1[C@H](Nc1ccc2c(c1)CNC2)C(=O)NCC(F)F | 7.21 and 7.28 | 
O=C(NCC(F)F)[C@H](Nc1ccc2c(c1)CNC2)c1cc(Cl)cc2c1CCC2 | 7.29 and 7.47 | 
O=C(NCC(F)F)[C@H](Nc1ccc2c(c1)CNC2)c1cc(Cl)cc2ccoc12 | 7.55 and 7.74 | 
O=C1Cc2c(cccc2C(=O)N[C@H]2CCSC3(CCOCC3)C2)N1 | < 4.60 | 
O=C1Cc2c(cccc2C(=O)NC2(c3ccc(O)nc3)CC2)N1 | < 4.60 | 
NC(=O)N1CCc2ccc(NC(=O)c3cccc4c3CC(=O)N4)cc21 | < 4.60 | 

Structure (SMILES) | pIC50 | IC50
Cc1[nH]nc2c1CC[C@H](NC(=O)c1cccc3c1CC(=O)N3)C2 | < 4.60 | 
COc1cc(C#N)cc([C@H](Nc2ccc3c(c2)CNC3)C(=O)NCC(F)F)c1 | 7.38 and 7.51 | 
C=CCNC(=O)C1(NC(=O)c2cccc3c2CC(=O)N3)CCCCC1 | < 4.60 | 
O=C1Cc2c(cccc2C(=O)N[C@H]2C[C@H](Cn3ccnc3)C2)N1 | < 4.60 | 
Cc1c(C(=O)Nc2cc(C(=O)N3CCC(O)CC3)ccn2)cc(C2CC2)n1C | < 4.60 | 
Cc1c(C(=O)Nc2cc(C(=O)N3CCNC(=O)C3)ccn2)cc(C2CC2)n1C | < 4.60 | 
O=C1Cc2c(cccc2C(=O)N[C@H]2CC[C@@H](n3ccnn3)CC2)N1 | < 4.60 | 
Cc1c(C(=O)Nc2cc(C(N)=O)ccn2)cc(C2CC2)n1C | < 4.60 | 
O=C1Cc2c(cccc2C(=O)NC2CC3(CCOCC3)C2)N1 | < 4.60 | 
O=C1Cc2c(cccc2C(=O)N[C@H]2CCc3cnccc32)N1 | < 4.60 | 
Cc1c(C(=O)Nc2cc(C(=O)N3CCOC[C@H](O)C3)ccn2)cc(C2CC2)n1C | < 4.60 | 
C[C@H](NC(=O)c1cccc2c1CC(=O)N2)c1cc2cnccc2o1 | < 4.60 | 
Cc1c(C(=O)Nc2cc(C(=O)N3CCOCC3)ccn2)cc(C2CC2)n1C | < 4.60 | 
Cc1c(C(=O)Nc2cc(C(=O)N3CCCNC(=O)C3)ccn2)cc(C2CC2)n1C | < 4.60 | 
C[C@H](NC(=O)c1cccc2c1CC(=O)N2)c1ccncc1F | < 4.60 | 
O=C1Cc2c(cccc2C(=O)NC[C@H]2CCCN(c3nccs3)C2)N1 | < 4.60 | 

Further lines, results first:

pIC50 | IC50 | Structure (SMILES)
< 4.60 |  | Cc1c(C(=O)Nc2cc(C(=O)N3CCn4nccc43)ccn2)cc(C2CC2)n1C
< 4.60 |  | COC1CCN(C(=O)c2ccnc(NC(=O)c3cc(C4CC4)n(C)c3C)c2)CC1
< 4.60 |  | O=C1Cc2c(cccc2C(=O)Nc2cc3c(cn2)OCCO3)N1
< 4.60 |  | Cc1c(C(=O)Nc2cc(C(=O)N[C@H]3CNC(=O)C3)ccn2)cc(C2CC2)n1C
< 4.60 |  | Cc1c(C(=O)Nc2cc(C(=O)N3CCC[C@H]3C(N)=O)ccn2)cc(C2CC2)n1C
< 4.60 |  | COC1CN(C(=O)c2ccnc(NC(=O)c3cc(C4CC4)n(C)c3C)c2)C1
6.92 |  | Cc1cc(C(=O)Nc2ccc3c(c2)CNC3)cc2nc[nH]c12
6.63 |  | O=C(NCC(F)F)[C@H](Nc1ccc2c(c1)CNC2)c1cc(Cl)ccc1Cl
< 4.60 |  | C=CC[C@H]1c2ccc(NC(=O)c3cc(Br)cc4[nH]ccc34)cc2CN1C(=O)OC(C)(C)C
< 4.60 |  | CCNC(=O)c1ccnc(NC(=O)c2cc(C3CC3)n(C)c2C)c1
< 4.60 |  | O=C1Cc2c(cccc2C(=O)N[C@H]2CCC[C@@H](C(=O)NC3CC3)C2)N1
< 4.60 |  | O=C1Cc2c(cccc2C(=O)N[C@H]2COc3cc(Br)cnc32)N1
6.87 |  | O=C(Nc1ccc2c(c1)CNC2)c1cc(F)cc2[nH]c(CC[C@H]3CCCOC3)nc12
< 4.60 |  | O=C1Cc2c(cccc2C(=O)Nc2ccn(C[C@H]3CCOC3)n2)N1
< 4.60 |  | Cc1cc(N2CCC(NC(=O)c3cccc4c3CC(=O)N4)CC2)[nH]n1
< 4.60 |  | CCO[C@@H]1CC[C@H]1NC(=O)c1cccc2c1CC(=O)N2
< 4.60 |  | O=C1Cc2c(cccc2C(=O)N[C@H]2CCc3ncsc3C2)N1
< 4.60 |  | Cc1c(C(=O)Nc2cc(C(=O)N[C@H]3CCOC3)ccn2)cc(C2CC2)n1C
< 4.60 |  | Cc1c(C(=O)Nc2cc(C(=O)N3C[C@@H]4[C@H](O)[C@@H]4C3)ccn2)cc(C2CC2)n1C
6.86 |  | CCOCC1(c2nc3c(C(=O)Nc4ccc5c(c4)CNC5)cc(F)cc3[nH]2)CC1
< 4.60 |  | O=C1Cc2c(cccc2C(=O)NC2CCC3(CC2)COC3)N1
< 4.60 |  | O=C1Cc2c(cccc2C(=O)N[C@H]2C[C@@H](c3ncc[nH]3)C2)N1

pIC50 | IC50 | Structure (SMILES)
< 4.60 |  | Cc1c(C(=O)Nc2cc(C(=O)N[C@H]3CCNC3=O)ccn2)cc(C2CC2)n1C
< 4.60 |  | Cc1c(C(=O)Nc2cc(C(=O)N3CC[C@H]3CO)ccn2)cc(C2CC2)n1C
< 4.60 |  | CC(C)n1cnc2cc(C(=O)Nc3ccc4c(c3)CNC4)ccc21
< 4.60 |  | O=C1Cc2c(cccc2C(=O)NC2CCN(c3nccs3)CC2)N1
< 4.60 |  | Cc1c(C(=O)Nc2cc(C(=O)Nc3cccnc3)ccn2)cc(C2CC2)n1C
5.44 |  | O=C(NCC(F)F)[C@H](Nc1ccc2c(c1)CNC2)c1cccc2c1CCC2
6.85 |  | CCc1cc2c(cc1NC(=O)c1cc(F)cc3[nH]ncc13)CNC2
< 4.60 |  | CC1(NC(=O)c2cccc3c2CC(=O)N3)CCOCC1
< 4.60 |  | O=C1Cc2c(cccc2C(=O)N[C@H]2CCC23CCOCC3)N1
< 4.60 |  | Cc1c(C(=O)Nc2cc(C(=O)N3CC[C@H](O)C3)ccn2)cc(C2CC2)n1C
< 4.60 |  | O=C1Cc2c(cccc2C(=O)Nc2ccc(-c3cccnc3)cn2)N1
6.70 |  | CS(=O)(=O)c1cc2c(cc1NC(=O)c1cc(F)cc3[nH]ncc13)CNC2
< 4.60 |  | Cc1c(C(=O)Nc2cc(C(=O)N3CC[C@H](CO)C3)ccn2)cc(C2CC2)n1C
< 4.60 |  | COc1ccccc1Cn1cnc2cc(C(=O)Nc3ccc4c(c3)CNC4)ccc21
< 4.60 |  | Cc1c(C(=O)Nc2cc(C(=O)N3CC(CO)C3)ccn2)cc(C2CC2)n1C
< 4.60 |  | C[C@H](NC(=O)c1cccc2c1CC(=O)N2)c1cccc(S(C)(=O)=O)c1
< 4.60 |  | Cc1c(C(=O)Nc2cc(C(=O)N(C)[C@H]3C[C@H](O)C3)ccn2)cc(C2CC2)n1C
6.61 |  | O=C(Nc1ccc2c(c1)CNC2)c1cccc2c1[C@]1(CCN(C(=O)OCc3ccccc3)C1)C(=O)N2
< 4.60 |  | CNC(=O)C[C@H]1CC[C@@H](NC(=O)c2cccc3c2CC(=O)N3)CC1
6.33 |  | N#Cc1csc2cc(C(=O)Nc3ccc4c(c3)CNC4)ccc12
6.88 |  | O=C(Nc1ccc2c(c1)CNC2)c1cc(F)cc2[nH]c(CCc3cccnc3)nc12
4.96 |  | Cn1nc(CNc2ccc3c(c2)CNC3)cc1C1CC1
